According to US11612652B2, “Lipids as synthetic vectors to enhance antigen processing and presentation ex-vivo in dendritic cell therapy” (PDS Biotechnology Corporation, priority 2015, dated 2023):
Entries after “also recorded” stand apart in the source; their conditions may differ.

What was measured:
[1] = test system: BMDC (CD11c positive cells); assay: DQ-OVA uptake and processing by BMDC, flow cytometry; type: cell-based, mouse; settings: for enhancement of DQ-OVA uptake and processing compared with known adjuvants (red fluorescence): one hour, 25 μM DOTAP nanoparticles, 10 μg/ml LPS or media alone
Experimental: In order to determine the effects of cationic lipids on antigen uptake and processing by dendritic cells ex-vivo, a fluorescent ovalbumin protein called DQ-OVA was used. DQ-OVA is non-fluorescent when intact, but emits both red and green fluorescence when the protein is degraded. BMDC were incubated at 37° C. or 4° C. for 1 hr with DQ-OVA alone, or DQ-OVA mixed with different concentrations of the cationic lipid DOTAP. The cells were then washed, fixed, and stained with fluorescent antibodies to CD11c, a marker for dendritic cells. Cells were then analyzed on an LSRII flow cytometer in both red and green fluorescent channels.
This represents the well-known mannose receptor mediated uptake of OVA by DC. […] Graphical representation of the fluorescent uptake of DQ-OVA into BMDC measured by flow cytometry.
This uptake and processing was inhibited at 4° C. confirming that active cytoskeletal rearrangements are required for this type of uptake. […] The effect of R-DOTAP was concentration dependent with 50 uM showing the greatest effect. To determine if the R-DOTAP enhancement of protein uptake is cell dependent, a mouse epithelial cell line was incubated with DQ-OVA under identical conditions as the BMDC. […] Further, they indicate that this enhancement is selective for dendritic cells and not other, non-antigen presenting cell types.
In order to determine whether lipid adjuvants could mediate the same effect as R-DOTAP, BMDC were incubated with DQ-OVA in media alone or with R-DOTAP as described for FIG. 1. In addition, BMDC were incubated under identical conditions with the potent lipid adjuvant lipopolysaccharide (LPS). Mouse bone marrow DC were incubated in the presence of fluorescent DQ-OVA for one hour at either 37° C. or 4° C./azide in the presence of 25 μM DOTAP nanoparticles, 10 μg/ml LPS or media alone, and analyzed by flow cytometry. […] Monophorphoryl lipid-A (MPL) is a lower toxicity derivative of LPS that is now an FDA approved adjuvant in several vaccines.

[2] = test system: serum cytokines and chemokines; assay: Systemic cytokines in serum after vaccination, Luminex Mouse cytokine 20-plex panel; type: in vivo, Human HLA-A2 mice
Experimental: This study therefore focused on an evaluation of the systemic presence of cytokines after subcutaneous administration of cationic lipid vaccines. Human HLA-A2 mice that could recognize human HPV antigens were administered high and low doses of R-DOTAP+antigen.
Group 1: • Vaccinate mice with 100 μL of a 1:1 mixture of high dose R-DOTAP (3.4 mg/mL) and sucrose solution.
Group 2: • Vaccinate with 50 μg LPS as a positive control for cytokine induction
Group 3: • Vaccinate mice with 100 μL of high dose R-DOTAP+HPV antigens (1:1 Mixture of RDOTAP 3.4 mg/mL, and HPVMix 0.14 mg/mL)
Group 4: • Vaccinate mice with 100 μL of low dose R-DOTAP+HPV antigens (1:1 Mixture of RDOTAP 0.34 mg/mL, and HPVMix 0.14 mg/mL)
After a single vaccination all mice were bled as follows:
Approximately 200 μL of blood was withdrawn from each mouse at the above specified time points.
The cytokine analysis was performed by Luminex Assay following the manufacturer's instructions.
As a positive control, the mice were also vaccinated with the well-studied toll-like-receptor (TLR) agonist lipopolysaccharide (LPS).
Study Results:Mouse serum was analyzed using a Luminex Mouse cytokine 20-plex panel (cytokines listed below). Cytokine intensity levels were quantitated by comparing to a cytokine standard run in the same plate using Luminex software. […]

[3] = test system: BMDC / OT-1 CD8+ T cells; assay: OT1 T cell proliferation (3H-thymidine uptake), cross-presentation of OVA by BMDC on MHC class I; type: cell-based, mouse; settings: for uptake and cross-presentation of OVA by BMDC, OT1 proliferation, CPM of 3H-thymidine uptake: whole OVA and various lipid concentrations, 30 min, three day culture
Experimental: In the second method, T cells from a TCR transgenic mice (OT-1) were used in which all T cells are specific for an internal peptide of OVA. These T cells will only proliferate if presented with DC which have processed OVA and presented an OVA peptide on MHC class I molecules.
Thus, this represents a stringent assay for cross presentation. BMDC were incubated with different concentrations of the whole OVA protein in the presence or absence of two cationic lipids, either DOTAP or DOTMA for 1 hr at 37° C. The DC were then washed, fixed and added to the OVA peptide specific T cells. […] This response was dose dependent with respect to the OVA concentration, and was even apparent when DC were incubated with OVA at 4° C.
To examine the effect of other cationic lipids and neutral lipids on antigen uptake and cross presentation, BMDC were incubated in the presence of the whole OVA protein and various concentrations of DOTAP DOTMA, DOPC, DOEPC or DDA for 30 min at 37° C. or 4° C. DC were then washed and added to OT1 splenocytes (TCR transgenic T cells specific for the class I restricted OVA peptide […] (SEQ ID NO: 2)) in microtiter plates and cultured for three days at 37° C. […] Control cultures contained OT1 splenocytes and […] (SEQ ID NO: 2) only which bypasses the need for antigen processing.

[4] = test system: HPV16-specific CD8+ T-cells; assay: IFN-gamma ELISPOT of splenocytes after vaccination with KF18 HPV peptide formulations; type: in vivo, C57 black mice; settings: vaccinated Day 0 and Day 7, sacrificed Day 14
Experimental: C57 black mice were vaccinated with various formulations: […]
Group 1: KF18 HPV peptide ([…]) (SEQ ID NO: 4)
Group 2: KF18 HPV peptide+R-DOTAP liposomes
Group 3: KF18 HPV peptide+S-DOTAP liposomes
Group 4: KF18 peptide+MPL/Alum adjuvant
5 mice per group were injected with the various formulations. The mice were vaccinated on Day 0 and Day 7 and sacrificed on Day 14. The splenocytes were removed and ELISPOT studies performed. The splenocytes were stimulated with the peptide […] (RF9) (SEQ ID NO: 5), the HPV16 CD8+ T-cell epitope peptide recognized by the C57 mice. […] An additional example of this effect is observed with the cationic lipid DDA. […] However, it has been reported that in order to induce strong antigen-specific T-cell responses that DDA is used in combination with strong adjuvants (Brandt L. et al, ESAT-6 Subunit Vaccination against Mycobacterium tuberculosis, Infect Immun. 2000 February; 68(2): 791-795).

[5] = previous reported studies; cited from earlier work
[6] = test system: TC-1 tumors; assay: Established TC-1 tumor model: tumor microenvironment, tumor volume, ELISPOT; type: in vivo, C57 mice
Experimental: C57 mice were divided into the following groups of 8 mice per group: R-DOTAP+HPV16 E7 peptide KF18 ([…]) (SEQ ID NO: 4) , GM-CSF+HPV16 E7 peptide KF18, R-DOTAP, GM-C SF, HPV16 E7 peptide KF18, untreated. 1×10^5 TC-1 tumor cells were injected into the flank of the mice on day 0. The various formulations were administered on Days 12 and 19 after tumor implantation. On day 19 4-5 mice per group were sacrificed and a number of evaluations performed to evaluate the immunology of the tumor microenvironment.
RF9 specific dextramer staining and flow cytometry were utilized to quantify the number of HPV-specific CD8+ T-cells that had infiltrated into the tumor micro-environment. The study quantified the number of CD8+ T cells specific to the mouse epitope RF9. These CD8+ T cells were measured as a percentage of all immune cells (CD45, CD3 and CD8) present in the tumor. Antigen specific T cells infiltrating into the tumor were measured using RF9 specific dextramers by flow cytometry. […] Data represents mean±SEM of 4-5 mice in each group.
On Day 19 flow cytometry was used to study the immuno-suppressive tumor microenvironment, specifically the regulatory T cell population. T regulatory cells (CD45+CD3+CD4+CD25+Foxp3+) cells infiltrated into tumors on day 14 and day 19.
Of critical importance to the clinical efficacy of any immunotherapy is the ratio of immune suppressive cells to tumor targeting CD8+ T cells within the tumor microenvironment. A lower ratio of immune suppressor cells to CD8+ T cells promotes improved prognosis for anti-tumor benefit. […] Cationic lipids appear to promote the preferential expansion of the right phenotype of effector T-cells in preference to Tregs.
The various formulations were evaluated for their impact on the established TC-1 tumors in the same study. […] Tumor volumes were measured using calipers. The naïve mice group are tumor bearing mice that remained untreated. The HPV16 E7 peptide used in the vaccine is KF18. […]
In this study, IFN-γ ELISPOT studies were also performed to quantify and understand the “quality” of tumor-specific T-cell generated. […]

lipopolysaccharide [LPS]
enhancement of DQ-OVA uptake and processing compared with known adjuvants (red fluorescence) [1]: no such enhancement was observed | time to systemic spike in cytokine levels ([2]; after vaccination): ≤ 12 h | systemic induction of cytokines and chemokines in serum ([2]; single vaccination, pre bleed, 12, 24, 48 hours): increases in the systemic levels of IL-12, IP-10, KC, MCP-1 & MIG

CCCCCCCC/C=C\CCCCCCCC(=O)OC[C@H](COP(=O)([O-])OCC[N+](C)(C)C)OC(=O)CCCCCCC/C=C\CCCCCCCC [DOPC, reference compound]
uptake and cross-presentation of OVA by BMDC, OT1 proliferation, CPM of 3H-thymidine uptake [3]: also facilitated uptake and presentation; also recorded: showed some enhancement

CCCCCCCC/C=C\CCCCCCCC(=O)OCC(C[N+](C)(C)C)OC(=O)CCCCCCC/C=C\CCCCCCCC (stereo not drawn) [DOTAP, 1,2-dioleoyl-3-trimethylammonium propane]
cross presentation of OVA to CD8+ T cells, CPM of 3H-thymidine uptake ([3]; BMDC with whole OVA, 1 hr at 37° C., washed, fixed): cross presented antigen to the CD8+ T cells much more strongly than DC incubated with OVA without cationic lipid | uptake and cross-presentation of OVA by BMDC, OT1 proliferation, CPM of 3H-thymidine uptake [3]: facilitated enhanced uptake and cross-presentation of OVA by BMDC; also recorded: showed some enhancement | DQ-OVA uptake and processing, mean green fluorescence of CD11c positive cells ([1]; 37° C., 1 hr, versus DQ-OVA alone): enhances antigen uptake and processing by DC

CCCCCCCC/C=C\CCCCCCCC(=O)OCC(C[N+](C)(C)C)OC(=O)CCCCCCC/C=C\CCCCCCCC (stereo not drawn) [S-DOTAP, 1,2-dioleoyl-3-trimethylammonium propane]
uptake and cross-presentation of OVA by BMDC, OT1 proliferation, CPM of 3H-thymidine uptake [3]: also facilitated uptake and presentation; also recorded: identical ability to promote antigen uptake, internalization and processing, as well as maturation of dendritic cells | HPV-specific CD8+ T-cell response (ELISPOT, RF9 stimulation) [4]: did not result in an enhanced CD8+ T-cell response beyond what was seen with the peptide alone | in vivo antigen-specific immune responses [5]: neither S-DOTAP nor DDA induced effective in vivo antigen-specific immune responses

CCCCCCCCCCCCCCCCCC[N+](C)(C)CCCCCCCCCCCCCCCCCC [DDA]
observation on dilution with OVA [3]: formed a precipitate when diluted with OVA | uptake and cross-presentation of OVA by BMDC, OT1 proliferation, CPM of 3H-thymidine uptake [3]: facilitated enhanced uptake and cross-presentation of OVA by BMDC; also recorded: showed strong enhancement of antigen presentation; also recorded: facilitate antigen uptake and presentation | in vivo antigen-specific immune responses [5]: neither S-DOTAP nor DDA induced effective in vivo antigen-specific immune responses

GQAEPDRAHYNIVTF [antigen only]
tumor volume ([6]; Day 26, calipers): about 200 mm^3 | effect on established TC-1 tumors ([6]; formulations on Days 12 and 19, read Day 26): did not induce any tumor regression but inhibited tumor growth

CCCCCCCC/C=C\CCCCCCCC(=O)OC[C@@H](COP(=O)(OCC)OCC[N+](C)(C)C)OC(=O)CCCCCCC/C=C\CCCCCCCC (stereo partly drawn) [DOEPC, 1,2-dioleoyl-sn-glycero-3-ethylphosphocholine]
uptake and cross-presentation of OVA by BMDC, OT1 proliferation, CPM of 3H-thymidine uptake [3]: facilitated enhanced uptake and cross-presentation of OVA by BMDC; also recorded: showed strong enhancement of antigen presentation

Monophorphoryl lipid-A [MPL, reference compound]
HPV-specific CD8+ T-cell response (ELISPOT, RF9 stimulation) [4]: significantly lower CD8+ T-cell response compared to R-DOTAP | enhancement of DQ-OVA uptake and processing compared with known adjuvants (red fluorescence) [1]: showed no ability to facilitate protein uptake in BMDC; also recorded: ineffective in promoting antigen uptake compared to both R-DOTAP and S-DOTAP
